Measured values from ChEMBL document CHEMBL5365515, “PARP7 Inhibition: A Promising Pathway to Advancements in Cancer Therapy” (ACS Med Chem Lett, 2023).

Molecular target: T1, Protein mono-ADP-ribosyltransferase TIPARP (Homo sapiens, UniProt Q7Z3E1)
T1 sequence (Q7Z3E1 whole entry): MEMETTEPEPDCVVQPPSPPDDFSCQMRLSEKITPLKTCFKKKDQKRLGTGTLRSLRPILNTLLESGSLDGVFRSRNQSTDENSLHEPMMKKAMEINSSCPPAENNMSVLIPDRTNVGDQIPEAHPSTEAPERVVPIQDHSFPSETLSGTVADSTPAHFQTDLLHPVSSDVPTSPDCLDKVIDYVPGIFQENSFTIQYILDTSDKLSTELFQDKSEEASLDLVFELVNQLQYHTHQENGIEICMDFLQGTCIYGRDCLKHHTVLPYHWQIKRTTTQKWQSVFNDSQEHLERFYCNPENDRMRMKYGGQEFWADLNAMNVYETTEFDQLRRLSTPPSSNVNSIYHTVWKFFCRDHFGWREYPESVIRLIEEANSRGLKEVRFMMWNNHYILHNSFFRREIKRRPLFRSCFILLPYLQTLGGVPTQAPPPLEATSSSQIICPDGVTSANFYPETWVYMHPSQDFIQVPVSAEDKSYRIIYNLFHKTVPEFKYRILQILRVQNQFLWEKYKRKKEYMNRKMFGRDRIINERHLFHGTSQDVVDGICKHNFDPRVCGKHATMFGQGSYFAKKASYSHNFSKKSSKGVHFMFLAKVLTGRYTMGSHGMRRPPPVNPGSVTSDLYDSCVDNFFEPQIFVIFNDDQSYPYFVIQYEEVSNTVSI
Assay: Inhibition of PARP7 in human NCI-H1373 cells assessed as increase in STAT1 phosphorylation at Tyr701 residue incubated for 48 hrs by LANCE Ultra TR-FRET assay
Format: cell-based

Structure (SMILES) | EC50 [µM]
O=C([C@@H](O)CCNc1cc(C(F)(F)F)c(=O)[nH]n1)N1CCN(c2ncc(C(F)(F)F)cn2)CC1 | 0.0213
O=C(CC[C@@H]1CCCCN1c1cc(C(F)(F)F)c(=O)[nH]n1)N1CCN(c2ncc(C(F)(F)F)cn2)CC1 | 0.172
O=C(CCCCc1cc(C(F)(F)F)c(=O)[nH]n1)N1CCN(c2ncc(C(F)(F)F)cn2)CC1 | 0.0606
CN(CCCC(=O)N1CCN(c2ncc(C(F)(F)F)cn2)CC1)c1cc(C(F)(F)F)c(=O)[nH]n1 | 0.0756
O=C(CCCN(c1ccccc1)c1cc(C(F)(F)F)c(=O)[nH]n1)N1CCN(c2ncc(C(F)(F)F)cn2)CC1 | 0.0741
CCN(CCCC(=O)N1CCN(c2ncc(C(F)(F)F)cn2)CC1)c1cc(C(F)(F)F)c(=O)[nH]n1 | 0.0516
O=C(CC[C@@H]1CCCN1c1cc(C(F)(F)F)c(=O)[nH]n1)N1CCN(c2ncc(C(F)(F)F)cn2)CC1 | 0.00931
O=C(CCC1Cc2ccccc2N1c1cc(C(F)(F)F)c(=O)[nH]n1)N1CCN(c2ncc(C(F)(F)F)cn2)CC1 (centres undefined) | 0.179
O=C(CCCNc1cc(C(F)(F)F)c(=O)[nH]n1)N1CCN(c2ncc(C(F)(F)F)cn2)CC1 | 0.0719
